Measurements as given in paper PMC6404402, “Design of indole- and MCR-based macrocycles as p53-MDM2 antagonists” (Beilstein Journal of Organic Chemistry, 2019).
“And” between values parts separate entries of the source, which are not always exact repeats. Equal values may be shown once. Values belong to the compound of their own block, whether it stands above or below them.

Assays:
[1] = Ugi macrocyclisation (intramolecular U-4C-3CR type): alpha,omega-amino acid + indole-3-carboxaldehyde (imine formation, MW 120 °C, 1 h), then tert-butyl isocyanide (MW 120 °C, 1 h); ring bond formed = amide between carboxyl C and amine N (via Mumm acyl transfer); conditions: the molecule shown is the open-chain precursor, MeOH, 100.0 mM, 2.0 h
[2] = target: 15N-labeled MDM2 (N-terminal domain of human MDM2, residues 1-118) (Homo sapiens, UniProt Q00987); test: 1H,15N HSQC NMR titration of 15N-labeled MDM2; assay type: binding; conditions: 1H,15N HSQC titration, 7–9 ligand/protein ratios 0 to 5; 0.20–0.35 mM 15N MDM2; 50 mM phosphate pH 7.4, 150 mM NaCl, 5 mM DTT, 10% D2O; 300K; 50 mM ligand stock in DMSO; weighted mean of KD's of most perturbed residues in fast chemical exchange
Sequence of 15N-labeled MDM2 (N-terminal domain of human MDM2, residues 1-118) (Q00987 1-118): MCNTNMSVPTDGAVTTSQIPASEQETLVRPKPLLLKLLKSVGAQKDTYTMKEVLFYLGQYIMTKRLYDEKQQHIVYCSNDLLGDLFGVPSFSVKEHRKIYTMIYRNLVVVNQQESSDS
Description: Protein expression and purification
Fragment of the N-terminal domain of human MDM2 (residues 1-118) was cloned into the pET-20 (Novagen) and expressed in E. coli strain BL21-CodonPlus(DE3)-RIL as described previously.1 In brief, cells were cultured at 37 °C. Protein expression was induced with 1 mM IPTG at OD600 of 0.8 and cultured for additional 5 h at 37 °C. Cells were collected by centrifugation and lysed by sonication. Inclusion bodies were collected by centrifugation, washed with PBS containing 0.05% Triton-X100 and subsequently solubilized in 6 M guanidine hydrochloride in 100 mM Tris-HCl, pH 8.0, containing 1 mM EDTA and 10 mM β-mercaptoethanol. The protein was dialyzed against 4 M guanidine hydrochloride pH 3.5 supplemented with 10 mM β-mercaptoethanol. Following, the protein was refolded by dropwise addition into 10 mM Tris-HCl, pH 7.0, containing 1 mM EDTA and 10 mM β-mercaptoethanol and slow mixing overnight at 4 °C. Ammonium sulfate was added to the final concentration of 1.5 M and the refolded protein was recovered on Butyl Sepharose 4 Fast Flow (GE Healthcare). […]
Uniform 15N isotope labeling was achieved by expression of the protein in the M9 minimal media containing 15NH4Cl as the sole nitrogen source. […] Water suppression was carried out using the WATERGATE sequence.2 All the spectra were recorded at 300K using a Bruker Avance 600 MHz spectrometer with the Cryo-Platform.

Structure (SMILES): O=C(O)CSCC(=O)NCCCCN=Cc1c[nH]c2cc(Cl)ccc12 [2k]
- ring closure, isolated yield ([1]; 11-membered ring): 29%

Structure (SMILES): O=C(O)COCC(=O)NCCCCCCN=Cc1c[nH]c2ccccc12
- ring closure, isolated yield ([1]; 13-membered ring): 51%

Structure (SMILES): O=C(O)COCC(=O)NCCCCCCCCCCCCN=Cc1c[nH]c2ccccc12 [2f]
- ring closure, isolated yield ([1]; 19-membered ring): 59%

Structure (SMILES): O=C(O)CSCC(=O)NCCCCCCCCCCN=Cc1c[nH]c2cc(Cl)ccc12 [2o]
- ring closure, isolated yield ([1]; 17-membered ring): 41%

Structure (SMILES): O=C(O)CSCC(=O)NCCCCCCN=Cc1c[nH]c2cc(Cl)ccc12 [2m]
- ring closure, isolated yield ([1]; 13-membered ring): 39%

Structure (SMILES): O=C(O)CSCC(=O)NCCCCCN=Cc1c[nH]c2cc(Cl)ccc12 [2l]
- ring closure, isolated yield ([1]; 12-membered ring): 35%

Structure (SMILES): O=C(O)COCC(=O)NCCCCN=Cc1c[nH]c2ccccc12 [2a]
- ring closure, isolated yield ([1]; 11-membered ring): 40%

Structure (SMILES): O=C(O)COCC(=O)NCCCCCCCCCCCCN=Cc1c[nH]c2cc(Cl)ccc12 [2j]
- ring closure, isolated yield ([1]; 19-membered ring): 60%

Structure (SMILES): O=C(O)COCC(=O)NCCCCCCCCN=Cc1c[nH]c2cc(Cl)ccc12 [2h]
- ring closure, isolated yield ([1]; 15-membered ring): 25%

Structure (SMILES): O=C(O)COCC(=O)NCCCCCCCCN=Cc1c[nH]c2ccccc12 [2d]
- ring closure, isolated yield ([1]; 15-membered ring): 33%

Structure (SMILES): O=C(O)COCC(=O)NCCCCCN=Cc1c[nH]c2ccccc12 [2b]
- ring closure, isolated yield ([1]; 12-membered ring): 35%

Structure (SMILES): O=C(O)COCC(=O)NCCCCCCCCCCN=Cc1c[nH]c2cc(Cl)ccc12 [2i]
- ring closure, isolated yield ([1]; 17-membered ring): 51%

Structure (SMILES): O=C(O)CSCC(=O)NCCCCCCCCCCCCN=Cc1c[nH]c2cc(Cl)ccc12 [2p]
- ring closure, isolated yield ([1]; 19-membered ring): 52%

Structure (SMILES): O=C(O)COCC(=O)NCCCCCCCCCCN=Cc1c[nH]c2ccccc12 [2e]
- ring closure, isolated yield ([1]; 17-membered ring): 31%

Structure (SMILES): O=C(O)COCC(=O)NCCCCCCN=Cc1c[nH]c2cc(Cl)ccc12 [2g]
- ring closure, isolated yield ([1]; 13-membered ring): 35%

Structure (SMILES): O=C(O)CSCC(=O)NCCCCCCCCN=Cc1c[nH]c2cc(Cl)ccc12 [2n]
- ring closure, isolated yield ([1]; 15-membered ring): 39%

- Kd [2]: 9 µM and 8.9 µM
Structure (SMILES): CC(C)(C)NC(=O)C(c1c[nH]c2cc(Cl)ccc12)N1CCCCCCNC(=O)COCC1=O (centres unmarked) [2g]
